{"source": "patent US20100310563A1", "about": "“METHODS FOR TREATING INDUCED CELLULAR PROLIFERATIVE DISORDERS” (priority 2007, published 2010)", "system": "phosphorylated JAK2 in GFP positive peripheral blood granulocytes of the JAK2V617F mouse", "experiment": "FACS analysis of intracellular JAK2 phosphorylation in peripheral blood granulocytes", "type": "cell-based", "settings": "with IL-3 and G-CSF stimulation for 60 minutes, GFP-positive granulocytes of a JAK2V617F mouse, FIG. 4B bottom", "description": "White cells from bone marrow and spleen were resuspended in staining buffer (BD Biosciences). Aliquots of 1×10^6 cells were stained for 20 minutes with conjugated monoclonal antibodies. Cells were washed in staining buffer and analyzed by FACS. For FACS analysis of intracellular JAK2 phosphorylation, peripheral blood of one JAK2V617F mouse and three normal BALB/c mice were collected. WBC from normal BALB/c mice were pooled together. Cells were split into three aliquots and resuspended in RPMI 1640 (Life Technologies) containing 0.5% BSA and incubated for 15 hours. Following incubation, one aliquot was stimulated with 10 ng/mL IL-3 plus 10 ng/mL granulocyte colonystimulating factor (G-CSF; StemCell) and second aliquot was stimulated with 10 ng/mL IL3, 10 ng/mL G-CSF, and 10 Amol/L AG-490 (Calbiochem) for 60 minutes and third aliquot was left unstimulated. Cells ([…]) were resuspended in 50 AL staining buffer (1% BSA and 0.1% sodium azide in PBS) and permeabilized using Fix&Perm cell permeabilization kit (Caltag Laboratories, Burlingame, Calif. and An der Grub, Vienna, Austria). The granulocyte population was selected by forward and side scatter\nTo test if the mutant JAK2V617F kinase in murine leukocytes is constitutively active, peripheral blood granulocytes was analyzed by FACS for phosphorylated JAK2. […]", "data": [{"smiles": "N#C/C(=C/c1ccc(O)c(O)c1)C(=O)NCc1ccccc1", "note": "[AG490]", "values": [{"measurement": "phosphorylated JAK2 levels", "result": "reduced phosphorylated JAK2 levels below baseline"}]}]}
